Patent publication US20140005163A1 (NOVARTIS AG, priority 2010, published 2014)
≈ marks a conversion by molar mass, not a printed value. Like-named read-outs stand apart in the source and are kept apart here.

Assays:
PI3K delta = molecular target: T1, PI3K delta (Homo sapiens, UniProt O00329); assay: PI3K delta kinase assay (Kinase-Glo luminescence); assay type: biochemical
T1 construct: for the full-length p110-d subunit are generated and fused by overlapping PCR; p85(iSH2) fusion partner (see partner chain) (N); His tag (C); made in house; host or cells: baculovirus; Tn5 (Trichoplusia ni) or TiniPro insect cells
Description: (§1) In a more preferred assay, the kinase reaction is performed in a final volume of 10 μL per well of a low volume non binding CORNING, 384 well black plate (Cat. No. #3676). The final concentrations of ATP and phosphatidyl inositol (PI) in the assay are 1 μM and 10 μg/mL respectively. The reaction is started by the addition of ATP.
(§2) The components of the assay are added per well as follows:
(§3) […] in 90% DMSO per well, in columns 1-20, 8 concentrations (1/3 and 1/3.33 serial dilution step) in single. • Low control: […] of 90% DMSO in half the wells of columns 23-24 (0.45% in final). • High control: […] of reference compound (e.g. compound of Example 7 in WO 2006/122806) in the other half of columns 23-24 (2.5 μM in final). • Standard: […] of reference compound as just mentioned diluted as the test compounds in columns 21-22 • 20 mL ‘buffer’ are prepared per assay: • 200 μL of 1M TRIS HCl pH7.5 (10 mM in final) • 60 μL of 1M MgCl2 (3 mM in final) • 500 μL of 2M NaCl (50 mM in final) • 100 μL of 10% CHAPS (0.05% in final) • 200 μL of 100 mM DTT (1 mM in final) • 18.94 mL of nanopure water • 10 mL ‘PI’ are prepared per assay: • 200 μL of 1 mg/ml L-alpha-Phosphatidylinositol (Liver Bovine, Avanti Polar Lipids Cat. No. 840042C MW=909.12) prepared in 3% OctylGlucoside (10 μg/ml in final) • 9.8 mL of ‘buffer’ • 10 mL ‘ATP’ are prepared per assay: • 6.7 μL of 3 mM stock of ATP giving a final concentration of 1 μM per well • 10 mL of ‘buffer’ • 2.5 mL of each PI3K construct are prepared per assay in ‘PI’ with the following final concentration: • 10 nM PI3K alfa EMV B1075 • 25 nM beta EMV BV949 • 10 nM delta EMV BV1060 • 150 nM gamma EMV BV950 • 5 μL of ‘PI/PI3K’ are added per well. • 5 μl ‘ATP’ are added per well to start the reaction. • The plates are then incubated at room temperature for 60 minutes (alfa, beta, delta) or 120 minutes (gamma). • The reaction is terminated by the addition of 10 μL Kinase-Glo (Promega Cat. No. #6714). • The assay plates are read after 10 minutes in Synergy 2 reader (BioTek, Vermont USA) with an integration time of 100 milliseconds and sensitivity set to 191. • Output: The High control is around 60'000 counts and the Low control is 30'000 or lower • This luminescence assay gives a useful Z′ ratio between 0.4 and 0.7
PI3Kγ BV-1060 p85(iSH2)-Gly Linker-p110d(Full-Length)-C-Term his Tag
(§4) IC50 is determined by a four parameter curve fitting routine that comes along with “excel fit”. […] Alternatively, IC50 values are calculated using idbsXLfit model 204, which is a 4 parameter logistic model.

Solubility at pH 6.8 = assay type: physicochemical
Source text: The physicochemical properties of relevance for the absorption of the compound, such as the solubility and the membrane permeability, especially at a pH close to neutral pH can be measured using the procedure as described by L. ZHOU et al. in JOURNAL OF PHARMACEUTICAL SCIENCES, VOL. 96, NO. 11, p. 3052-3071 (2007) for the solubility at pH 6.8 and the procedure as described by F. Wohnsland and B. Faller in Journal of Medicinal Chemistry Vol 44, p. 923-930 (2001) for the Parallel Artificial Membrane Permeability Assay (PAMPA) at pH 6.8.

mTOR = molecular target: T2, mTOR (Homo sapiens, UniProt P42345); assay: Biochemical assay for m-TOR by TR-FRET; details: 8 μM ATP, 400 nM GFP-4EBP1, 0.5 nM mTOR
T2 construct: purchased Invitrogen Corporation (Carlsbad/CA, USA) PV4753
Summary of the method: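 TR-FRET read-out: Tb-labelled anti-p4EBP1 pThr46 antibody (0.5 nM), added in EDTA to stop the reaction, detects phosphorylated GFP-4EBP1 after 15 min. Kinase step used 0.5 nM mTOR, 400 nM substrate, 8 μM ATP, MnCl2-containing HEPES buffer pH 7.5, room temperature.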

PI3K alpha = molecular target: T3, PI3K alpha (Homo sapiens, UniProt P42336); assay: PI3K alpha kinase assay (Kinase-Glo luminescence); assay type: biochemical
T3 construct: p85(iSH2) fusion partner (see partner chain) (N); His tag (C); made in house; host or cells: baculovirus; Tn5 (Trichoplusia ni) or TiniPro insect cells
Summary of the method: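 Read-out: Kinase-Glo luminescence of ATP left after 60 min at room temperature. Conditions: 10 nM PI3Kα (EMV B1075), 1 μM ATP, 10 μg/mL PI substrate, Tris pH 7.5 buffer with MgCl2, NaCl, CHAPS and DTT. IC50s fitted with a four-parameter logistic model.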

[1] = tested on: PKB Ser473 phosphorylation in Rat1-myr-HA-p110 alpha cells; assay: Reverse protein array assay, PKB Ser473 phosphorylation in Rat1-myr-p110 alpha cells; assay type: cell-based; details: 0.5 h, pAkt Ser473, 30 minutes compound incubation, read-out: p-PKB IC50
Summary of the method: (§5)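 After at least 20 h of culture, the p110 isoform-transfected Rat1 lines receive compound in an 8-step dilution series, keeping DMSO at 0.2%, for 30 minutes. Cells are then lysed and lysates arrayed on chips for fluorescence detection of Ser473-phosphorylated PKB.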

PI3K beta = molecular target: T4, PI3K beta (Homo sapiens, UniProt P42338); assay: PI3K beta kinase assay (Kinase-Glo luminescence); assay type: biochemical
T4 construct: for the full-length p110-b subunit are generated and fused by overlapping PCR; p85(iSH2) fusion partner (see partner chain) (N); His tag (C); made in house; host or cells: baculovirus; Tn5 (Trichoplusia ni) or TiniPro insect cells
Description: as §1, §2, §3
PI3Kβ BV-949 p85(iSH2)-Gly Linker-p110b(Full-Length)-C-Term his Tag
as §4

[2] = tested on: PKB Ser473 phosphorylation in Rat1-myr-HA-p110 beta cells; assay: Reverse protein array assay, PKB Ser473 phosphorylation in Rat1-myr-p110 beta cells; assay type: cell-based; details: 0.5 h, pAkt Ser473, 30 minutes incubation, read-out: p-PKB IC50
Summary of the method: as §5

[3] = tested on: PKB Ser473 phosphorylation in Rat1-myr-HA-p110 delta cells; assay: Reverse protein array assay, PKB Ser473 phosphorylation in Rat1-myr-p110 delta cells; assay type: cell-based; details: read-out: p-PKB IC50
Summary of the method: as §5

[4] = tested on: S6 Ribosomal Protein phosphorylation Ser235/236 in TSC1 null mouse embryo fibroblast (MEF) cells; assay: Reverse protein array assay, S6 Ribosomal Protein phosphorylation Ser235/236 in TSC1 null MEF cells; assay type: cell-based; details: 1 h, pS6 ribosomal protein Ser235/236, 60 minutes incubation, read-out: p-S6 IC50
Summary of the method: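 TSC1−/− MEFs, seeded and held ≥20 h at 37 °C/5% CO2, were exposed to 8-step serial compound dilutions (0.02% DMSO final; DMSO vehicle control) for 60 min at 37 °C. Cells were then lysed on ice for 10 min and lysates spotted onto reverse protein array chips.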

[5] = pH 6.8, aqueous buffer, thermodynamic from solid, read-out: solubility

T2 sequence (P42345 1360-2549 limits assumed): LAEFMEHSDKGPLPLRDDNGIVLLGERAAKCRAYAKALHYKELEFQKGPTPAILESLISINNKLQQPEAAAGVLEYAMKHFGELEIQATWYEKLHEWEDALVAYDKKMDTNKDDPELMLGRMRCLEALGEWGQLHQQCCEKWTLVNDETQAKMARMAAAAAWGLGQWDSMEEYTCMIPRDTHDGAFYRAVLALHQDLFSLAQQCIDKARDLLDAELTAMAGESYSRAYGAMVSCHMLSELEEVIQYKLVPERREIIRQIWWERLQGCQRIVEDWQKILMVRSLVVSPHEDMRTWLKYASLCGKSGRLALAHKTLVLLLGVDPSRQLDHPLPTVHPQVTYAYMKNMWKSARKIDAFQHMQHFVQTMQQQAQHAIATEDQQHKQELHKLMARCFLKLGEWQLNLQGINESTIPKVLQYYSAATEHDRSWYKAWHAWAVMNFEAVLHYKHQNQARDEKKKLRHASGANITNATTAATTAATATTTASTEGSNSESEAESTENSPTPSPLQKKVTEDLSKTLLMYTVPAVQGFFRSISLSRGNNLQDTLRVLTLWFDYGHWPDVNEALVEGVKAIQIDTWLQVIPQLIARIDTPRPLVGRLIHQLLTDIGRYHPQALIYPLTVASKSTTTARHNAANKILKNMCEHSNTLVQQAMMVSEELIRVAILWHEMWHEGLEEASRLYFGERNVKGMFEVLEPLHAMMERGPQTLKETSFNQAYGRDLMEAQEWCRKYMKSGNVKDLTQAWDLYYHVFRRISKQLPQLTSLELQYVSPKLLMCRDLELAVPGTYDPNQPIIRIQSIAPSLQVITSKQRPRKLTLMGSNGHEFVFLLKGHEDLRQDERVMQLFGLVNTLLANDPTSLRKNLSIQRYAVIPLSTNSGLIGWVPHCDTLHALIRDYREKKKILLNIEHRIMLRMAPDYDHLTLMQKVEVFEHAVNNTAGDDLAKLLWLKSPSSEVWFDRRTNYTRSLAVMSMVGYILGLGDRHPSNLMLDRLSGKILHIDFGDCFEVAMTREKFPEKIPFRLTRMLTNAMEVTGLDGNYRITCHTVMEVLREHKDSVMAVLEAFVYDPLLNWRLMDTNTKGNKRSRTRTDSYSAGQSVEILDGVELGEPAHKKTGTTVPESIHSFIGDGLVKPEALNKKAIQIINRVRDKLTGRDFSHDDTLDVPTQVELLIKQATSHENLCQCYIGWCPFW
T4 sequence (P42338 with tags, fused parts or gaps limits assumed): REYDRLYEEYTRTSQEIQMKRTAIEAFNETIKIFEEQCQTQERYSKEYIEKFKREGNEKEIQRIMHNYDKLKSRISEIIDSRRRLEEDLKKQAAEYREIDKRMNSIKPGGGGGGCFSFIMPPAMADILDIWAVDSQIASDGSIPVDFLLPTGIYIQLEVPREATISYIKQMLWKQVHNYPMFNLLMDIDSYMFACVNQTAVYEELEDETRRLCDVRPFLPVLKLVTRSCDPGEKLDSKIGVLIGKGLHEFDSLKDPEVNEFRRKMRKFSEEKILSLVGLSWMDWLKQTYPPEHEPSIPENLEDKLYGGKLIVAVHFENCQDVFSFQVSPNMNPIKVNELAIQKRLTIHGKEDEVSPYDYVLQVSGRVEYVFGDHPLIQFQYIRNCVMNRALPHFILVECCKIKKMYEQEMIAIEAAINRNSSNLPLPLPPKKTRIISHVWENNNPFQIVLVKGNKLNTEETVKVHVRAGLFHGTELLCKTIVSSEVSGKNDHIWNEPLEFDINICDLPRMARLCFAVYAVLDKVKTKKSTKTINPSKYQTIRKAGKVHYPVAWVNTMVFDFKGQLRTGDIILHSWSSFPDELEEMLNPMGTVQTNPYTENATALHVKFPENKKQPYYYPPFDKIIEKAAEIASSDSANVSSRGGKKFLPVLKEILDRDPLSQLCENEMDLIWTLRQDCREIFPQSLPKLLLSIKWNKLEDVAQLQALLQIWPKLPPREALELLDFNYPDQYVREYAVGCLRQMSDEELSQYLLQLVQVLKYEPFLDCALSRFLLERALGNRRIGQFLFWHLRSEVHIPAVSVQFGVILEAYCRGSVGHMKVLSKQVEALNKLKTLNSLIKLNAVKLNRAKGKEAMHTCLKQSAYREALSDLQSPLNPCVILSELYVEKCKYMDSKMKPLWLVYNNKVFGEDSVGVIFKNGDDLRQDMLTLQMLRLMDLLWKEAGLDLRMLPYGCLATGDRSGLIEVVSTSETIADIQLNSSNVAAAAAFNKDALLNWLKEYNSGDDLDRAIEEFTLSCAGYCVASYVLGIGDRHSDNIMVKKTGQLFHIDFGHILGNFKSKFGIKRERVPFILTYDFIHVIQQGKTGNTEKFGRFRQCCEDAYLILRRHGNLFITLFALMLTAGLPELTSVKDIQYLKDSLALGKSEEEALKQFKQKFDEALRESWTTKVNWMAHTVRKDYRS
T1 sequence (O00329 with tags, fused parts or gaps limits assumed): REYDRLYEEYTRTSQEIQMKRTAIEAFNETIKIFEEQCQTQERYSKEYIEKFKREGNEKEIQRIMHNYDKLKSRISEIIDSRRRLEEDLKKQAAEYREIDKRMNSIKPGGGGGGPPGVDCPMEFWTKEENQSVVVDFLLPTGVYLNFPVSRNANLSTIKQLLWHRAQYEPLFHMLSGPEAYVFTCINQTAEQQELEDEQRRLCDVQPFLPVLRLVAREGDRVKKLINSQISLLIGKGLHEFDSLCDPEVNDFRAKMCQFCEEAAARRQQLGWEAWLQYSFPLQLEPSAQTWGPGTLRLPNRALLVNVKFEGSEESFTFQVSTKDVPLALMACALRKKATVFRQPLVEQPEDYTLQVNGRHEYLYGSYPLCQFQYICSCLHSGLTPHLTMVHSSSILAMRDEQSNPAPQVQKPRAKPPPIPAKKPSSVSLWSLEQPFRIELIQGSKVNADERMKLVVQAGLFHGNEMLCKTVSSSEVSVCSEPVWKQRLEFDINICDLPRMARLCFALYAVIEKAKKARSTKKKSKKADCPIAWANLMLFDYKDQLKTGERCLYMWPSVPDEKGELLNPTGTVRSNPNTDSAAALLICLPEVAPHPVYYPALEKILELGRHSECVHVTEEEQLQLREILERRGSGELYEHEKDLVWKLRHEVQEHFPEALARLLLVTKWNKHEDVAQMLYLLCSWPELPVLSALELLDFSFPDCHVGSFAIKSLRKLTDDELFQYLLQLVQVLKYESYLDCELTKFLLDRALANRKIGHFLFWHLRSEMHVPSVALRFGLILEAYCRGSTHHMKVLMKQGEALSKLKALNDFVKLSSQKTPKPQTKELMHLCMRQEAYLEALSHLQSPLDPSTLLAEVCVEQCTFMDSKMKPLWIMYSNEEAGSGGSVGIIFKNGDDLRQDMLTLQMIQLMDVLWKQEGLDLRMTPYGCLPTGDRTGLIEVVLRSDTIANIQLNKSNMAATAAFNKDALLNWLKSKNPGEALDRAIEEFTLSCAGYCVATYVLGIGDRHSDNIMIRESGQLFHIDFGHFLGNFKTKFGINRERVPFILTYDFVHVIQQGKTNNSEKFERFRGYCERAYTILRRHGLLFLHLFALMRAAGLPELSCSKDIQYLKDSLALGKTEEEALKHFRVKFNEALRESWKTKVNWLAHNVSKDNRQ
T3 sequence (P42336 with tags, fused parts or gaps limits assumed): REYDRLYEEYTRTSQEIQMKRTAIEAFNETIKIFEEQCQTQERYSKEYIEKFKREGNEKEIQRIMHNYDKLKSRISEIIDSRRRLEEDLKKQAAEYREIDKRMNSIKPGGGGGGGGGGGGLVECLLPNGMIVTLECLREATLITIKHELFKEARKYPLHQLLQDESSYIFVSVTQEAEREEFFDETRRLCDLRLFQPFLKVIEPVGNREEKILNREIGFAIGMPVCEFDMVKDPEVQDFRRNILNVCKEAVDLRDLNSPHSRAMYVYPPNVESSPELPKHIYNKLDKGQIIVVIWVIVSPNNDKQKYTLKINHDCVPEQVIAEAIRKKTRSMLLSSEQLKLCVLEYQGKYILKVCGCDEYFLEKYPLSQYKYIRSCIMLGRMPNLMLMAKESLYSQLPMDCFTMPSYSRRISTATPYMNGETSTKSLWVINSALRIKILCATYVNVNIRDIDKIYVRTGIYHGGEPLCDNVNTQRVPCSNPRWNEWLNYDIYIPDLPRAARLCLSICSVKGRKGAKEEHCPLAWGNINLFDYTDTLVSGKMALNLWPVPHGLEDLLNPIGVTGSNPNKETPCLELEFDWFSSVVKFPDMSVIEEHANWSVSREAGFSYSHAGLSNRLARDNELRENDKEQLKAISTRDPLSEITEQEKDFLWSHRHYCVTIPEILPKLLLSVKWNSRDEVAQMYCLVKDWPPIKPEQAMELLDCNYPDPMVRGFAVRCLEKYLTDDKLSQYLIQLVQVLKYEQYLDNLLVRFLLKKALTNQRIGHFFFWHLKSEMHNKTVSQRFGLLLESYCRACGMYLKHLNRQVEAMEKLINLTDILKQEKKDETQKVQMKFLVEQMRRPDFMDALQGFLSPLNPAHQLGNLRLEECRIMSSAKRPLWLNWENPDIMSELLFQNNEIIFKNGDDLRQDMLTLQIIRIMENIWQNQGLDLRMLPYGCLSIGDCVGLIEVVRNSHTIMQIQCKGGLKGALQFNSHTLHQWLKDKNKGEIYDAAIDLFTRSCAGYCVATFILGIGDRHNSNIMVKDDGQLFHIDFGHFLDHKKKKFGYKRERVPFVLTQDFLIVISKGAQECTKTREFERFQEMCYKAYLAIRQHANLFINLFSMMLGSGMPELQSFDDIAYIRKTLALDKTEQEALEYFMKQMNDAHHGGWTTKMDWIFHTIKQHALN

Structure (SMILES)	IC50 (PI3K delta) [nM]	solubility (Solubility at pH 6.8; [5]) [µg/mL]	IC50 (mTOR) [nM]	IC50 (PI3K alpha) [nM]	solubility (Solubility at pH 6.8; pH 6.8) [µg/mL]	IC50 [1] [nM]	IC50 (PI3K beta) [nM]	IC50 [2] [nM]	IC50 [3] [nM]	IC50 [4] [nM]
Cc1cc(-n2c(=O)n(C)c3cnc4ccc(-c5cccnc5F)cc4c32)n(C)n1 [Example 9, 1-(2,5-Dimethyl-2H-pyrazol-3-yl)-8-(2-fluoro-pyridin-3-yl)-3-methyl-1,3-dihydro-imidazo[4,5-c]quinolin-2-one]	737	9 (≈ 23.2 µM)	383	246	–	–	–	–	–	–
Cn1nccc1-n1c(=O)n(C)c2cnc3ccc(-c4ccnc(F)c4)cc3c21 [Example 11, 8-(2-Fluoro-pyridin-4-yl)-3-methyl-1-(2-methyl-2H-pyrazol-3-yl)-1,3-dihydro-imidazo[4,5-c]quinolin-2-one]	810	–	–	–	2 (≈ 5.34 µM)	–	–	–	–	–
Cc1nn(C)cc1-n1c(=O)n(C)c2cnc3ccc(-c4cnn(CCO)c4)cc3c21 [Example 106, 1-(1,3-Dimethyl-1H-pyrazol-4-yl)-8-[1-(2-hydroxy-ethyl)-1H-pyrazol-4-yl]-3-methyl-1,3-dihydro-imidazo[4,5-c]quinolin-2-one]	147	> 403	672	154	–	–	–	–	–	–
COc1ccc(-c2ccc3ncc4[nH]c(=O)n(-c5cn(C)nc5C)c4c3c2)cc1OC [Example 111, 8-(3,4-Dimethoxy-phenyl)-1-(1,3-dimethyl-1H-pyrazol-4-yl)-1,3-dihydro-imidazo[4,5-c]quinolin-2-one]	50	–	–	27	–	10	41	13	18	3
Cc1nn(C(C)C)cc1-n1c(=O)n(C)c2cnc3ccc(-c4ccccn4)cc3c21 [Example 113, 1-(1-Isopropyl-3-methyl-1H-pyrazol-4-yl)-3-methyl-8-pyridin-2-yl-1,3-dihydro-imidazo[4,5-c]quinolin-2-one]	–	30 (≈ 75.3 µM)	–	–	–	818	–	–	–	–
CCNc1cc(-c2ccc3ncc4c(c3c2)n(-c2c(C)noc2C)c(=O)n4C)cnc1F [Example 154.2, 1-(3,5-Dimethyl-isoxazol-4-yl)-8-(5-ethylamino-6-fluoro-pyridin-3-yl)-3-methyl-1,3-dihydro-imidazo[4,5-c]quinolin-2-one]	80	–	–	173	–	253	76	245	458	39
CCOCc1cc(-c2ccc3ncc4c(c3c2)n(-c2c(C)nn(C)c2C)c(=O)n4C)cnc1N [Example 166.5, 8-(6-Amino-5-ethoxymethyl-pyridin-3-yl)-3-methyl-1-(1,3,5-trimethyl-1H-pyrazol-4-yl)-1,3-dihydro-imidazo[4,5-c]quinolin-2-one]	33	–	–	28	–	301	222	–	833	91.7
CNc1ncc(-c2ccc3ncc4c(c3c2)n(-c2cn(C)nc2Cl)c(=O)n4C)cc1COC [Example 248.4, 1-(3-Chloro-1-methyl-1H-pyrazol-4-yl)-8-(5-methoxymethyl-6-methylaminopyridin-3-yl)-3-methyl-1,3-dihydro-imidazo[4,5-c]quinolin-2-one]	< 3	–	6	7	–	< 5	8	8	8	–

Continued, in another order:

IC50 (PI3K delta) [nM]	solubility (Solubility at pH 6.8; [5]) [µg/mL]	IC50 (mTOR) [nM]	IC50 (PI3K alpha) [nM]	solubility (Solubility at pH 6.8; pH 6.8) [µg/mL]	IC50 [1] [nM]	IC50 (PI3K beta) [nM]	IC50 [2] [nM]	IC50 [3] [nM]	Structure (SMILES)	IC50 [4] [nM]
166	> 441	–	85	–	–	–	–	–	CNC(=O)Cc1cncc(-c2ccc3ncc4c(c3c2)n(-c2cn(C)nc2C)c(=O)n4C)c1 [Example 228, 2-{5-[1-(1,3-Dimethyl-1H-pyrazol-4-yl)-3-methyl-2-oxo-2,3-dihydro-1H-imidazo[4,5-c]quinolin-8-yl]-pyridin-3-yl}-N-methyl-acetamide]	–
5	–	–	8	–	279	8	275	235	Cc1nn(C)cc1-n1c(=O)n(C)c2cnc3ccc(-c4cncc(C(C)(C)CO)c4)cc3c21 [Example 229, 1-(1,3-Dimethyl-1H-pyrazol-4-yl)-8-[5-(2-hydroxy-1,1-dimethyl-ethyl)-pyridin-3-yl]-3-methyl-1,3-dihydro-imidazo[4,5-c]quinolin-2-one]	11
–	413 (≈ 935 µM)	542	405	–	–	–	–	–	CC(=O)NCc1cncc(-c2ccc3ncc4c(c3c2)n(-c2cn(C)nc2C)c(=O)n4C)c1 [Example 231, N-{5-[1-(1,3-Dimethyl-1H-pyrazol-4-yl)-3-methyl-2-oxo-2,3-dihydro-1H-imidazo[4,5-c]quinolin-8-yl]-pyridin-3-ylmethyl}-acetamide]	–
< 3	–	15	10	–	9	23	25	25	CNc1ncc(-c2ccc3ncc4c(c3c2)n(-c2cn(C)nc2C)c(=O)n4C)cc1COC [Example 248.3, 1-(1,3-Dimethyl-1H-pyrazol-4-yl)-8-(5-methoxymethyl-6-methylamino-pyridin-3-yl)-3-methyl-1,3-dihydro-imidazo[4,5-c]quinolin-2-one]	–
